Settings: Liquid, Vibrating tube method

CCCCCCCCCCCCC [tridecane]
Settings	mass density [kg/m3]
313.01 K, 1023 kPa	743.49
313.01 K, 2030 kPa	744.27
313.01 K, 3025 kPa	745.05
313.01 K, 4027 kPa	745.74
313.01 K, 5014 kPa	746.51
313.01 K, 6024 kPa	747.18
313.01 K, 7021 kPa	747.95
313.01 K, 8036 kPa	748.69
313.01 K, 9019 kPa	749.41
313.01 K, 10018 kPa	750.14
313.01 K, 11030 kPa	750.86
313.01 K, 12006 kPa	751.51
313.01 K, 13017 kPa	752.24
313.01 K, 14035 kPa	752.95
313.01 K, 15021 kPa	753.59
313.01 K, 16019 kPa	754.27
313.01 K, 17019 kPa	754.94
313.01 K, 18024 kPa	755.61
313.01 K, 19025 kPa	756.27
313.01 K, 20043 kPa	756.91
313.01 K, 21011 kPa	757.52
313.01 K, 22020 kPa	758.16
313.01 K, 23018 kPa	758.79
313.01 K, 24004 kPa	759.44
313.01 K, 25036 kPa	760.12
322.92 K, 1017 kPa	736.15
322.92 K, 2006 kPa	736.94
322.92 K, 3025 kPa	737.83
322.92 K, 4021 kPa	738.62
322.92 K, 5021 kPa	739.42
322.92 K, 6043 kPa	740.18
322.92 K, 7018 kPa	740.9
322.92 K, 8022 kPa	741.72
322.92 K, 9008 kPa	742.44
322.92 K, 10012 kPa	743.18
322.92 K, 11015 kPa	743.93
322.92 K, 12006 kPa	744.71
322.92 K, 13030 kPa	745.38
322.92 K, 14010 kPa	746.12
322.92 K, 15026 kPa	746.81
322.92 K, 16024 kPa	747.53
322.92 K, 17016 kPa	748.22
322.92 K, 18010 kPa	748.89
322.92 K, 19007 kPa	749.56
322.92 K, 20023 kPa	750.22
322.92 K, 21020 kPa	750.92
322.92 K, 22010 kPa	751.57
322.92 K, 23040 kPa	752.26
322.92 K, 24006 kPa	752.95
322.92 K, 25006 kPa	753.6
332.78 K, 1015 kPa	729.19
332.78 K, 2020 kPa	730.06
332.78 K, 3022 kPa	730.83
332.78 K, 4016 kPa	731.63
332.78 K, 5020 kPa	732.47
332.78 K, 6016 kPa	733.27
332.78 K, 7006 kPa	734.09
332.78 K, 8018 kPa	734.9
332.78 K, 9013 kPa	735.71
332.78 K, 10008 kPa	736.52
332.78 K, 11016 kPa	737.3
332.78 K, 12007 kPa	738.05
332.78 K, 13012 kPa	738.79
332.78 K, 14021 kPa	739.55
332.78 K, 15011 kPa	740.26
332.78 K, 16020 kPa	741.03
332.78 K, 17015 kPa	741.74
332.78 K, 18005 kPa	742.47
332.78 K, 19017 kPa	743.19
332.78 K, 20014 kPa	743.89
332.78 K, 21016 kPa	744.66
332.78 K, 22046 kPa	745.35
332.78 K, 22994 kPa	745.97
332.78 K, 24032 kPa	746.67
332.78 K, 25030 kPa	747.38

Source: the NIST ThermoML archive (doi:10.1016/j.fluid.2007.04.023)
